Experimental data from patent US11358931B2, “Selective androgen receptor modulators (SARMs) and uses thereof” (priority 2007, dated 2022).
Where two headings read alike, the source gives them in different places.

How the values were obtained:
[1] = Pharmacokinetics in orchidectomized male rats (plasma, Day 14); assay type: in vivo; conditions: rat, ORX male rats; for AUC: male, po; for Cmax / Tmax: PO
Source text: In this assay, two-month old rats were acclimated in a vivarium for one week. After this acclimation period, rats were surgically orchidectomized under isoflurane anesthesia and left untreated for 14 days. After 14 days, animals were sorted into groups such that no statistically significant differences in mean body weights were observed. Rats began receiving treatment 14 days after the day of surgery. Sham-operated and orchidectomized rats, treated with vehicle, served as controls. The different test groups were treated with various doses of Compound 102 (0.03 to 100 mg/kg/day per os (by mouth)). Dosages included 0.03, 0.1, 0.3, 1, 3, 10, 30 and 100 mg/kg/day. Ostarine, a non-steroidal androgenic drug (Evans et al., J Clin Oncology 25: 9119 (2007)) was dosed at dosages similar to other test groups as a comparison. After the 14th dose, venous blood was collected at 0, 1, 2, 4 and 6 hours after dosing. The blood samples were collected in EDTA-containing tubes (Becton Dickinson, Franklin Lakes, N.J.). Approximately 24 hours after the last dose, animals were euthanized and seminal vesicle weights, ventral prostate weights, levator ani weights, preputial gland weights and blood samples were collected on necropsy.
The determination of plasma concentration was done by an LC-MS/MS method. The standard solution of each drug was spiked in blank rat plasma, calibration standards were constructed from 0.0001 μg/mL to 10 μg/mL; and 50 μL of each calibration standard was extracted with 250 μL of acetonitrile containing 10 ng/mL of internal standard in a 96-well plate. Also, 50 μL of plasma sample was extracted with 250 μL of acetonitrile containing internal standard in a 96-well plate.
Peak pharmacokinetic (PK) parameters were calculated and rounded to three decimal places.

[2] = Toxicokinetics in cynomolgus monkeys (14-day oral study); assay type: in vivo, cynomolgus monkey
Method: (§1) A study was performed to determine any potential toxicity and the toxicokinetic profile of Compound 102 when administered orally (via nasal gavage) to cynomolgus monkeys for at least 14 days. The cynomolgus monkey was chosen for this study as it is a non-rodent species that is commonly used for non-clinical toxicity evaluations. Use of the monkey model maximized the likelihood of identifying toxicological responses that may occur in humans. Ten experimentally naïve cynomolgus monkeys (5 male and 5 female) from about 2.5 to 3 years of age and weighing between about 2.3 to about 2.8 kg at Day −1 of the study were assigned to dose groups as shown in Table 6 below.
(§2) All animals were dosed via nasal gavage once daily for 14 consecutive days. The first day of dosing was designated Day 1 for all animals. The animals were evaluated for clinical signs (evaluation of mortality and morbidity, twice daily), cage side observations and food consumption (once daily), body weight (Days 1, 8 and 14), physical examination (Day −5 and post dosing following the 13/24 hour toxicokinetic collection on Day 14), ophthalmic examination (prestudy and owing the Day 13/24 hour toxicokinetic collection on Day 14), and clinical pathology parameters (serum chemistry, hematology and coagulation on Days −3 and 14), urine samples were collected during necropsy (Day 15) for urinalysis. Blood samples were collected for toxicokinetic analysis at 1, 2, 4, 8, 12 and 24 hours post dose on Days 1 and 13.

[3] = Oral bioavailability in animal species; conditions: multiple animal species, including monkeys
cynomolgus monkeys = assay: 14-day oral toxicity study in cynomolgus monkeys; assay type: in vivo, cynomolgus monkey
Method: as §1, §2
(§3) All ten animals were euthanized one day after the last dose. At termination, a full necropsy was conducted on all animals, and tissues were collected, preserved, processed and examined microscopically by an American College of Veterinary Pathologists (ACVP) certified pathologist.
(§4) Vehicle was composed of PEG 400/Tween® 80/PVP-K30 (90/5/5, w/w/w). Appropriate amounts of Compound 102 were added to vehicle to prepare the suspension of test compound administered to the animals
(§5) Blood samples for evaluation of serum chemistry, hematology and coagulation parameters were collected from all animals on Days −3 and 14. Urine samples were obtained by bladder puncture during necropsy. The animals were fasted for at east 8 hours prior to blood collections for serum chemistry. Serum chemistry parameters included alanine aminotransferase (ALT), total protein, aspartate aminotransferase (AST), alkaline phosphatase (ALP), gamma-glutamyltransferase (GGT), albumin, globulin, albumin/globulin ratio, lactate dehydrogenase (LD), glucose, total bilirubin, cholesterol, urea nitrogen (BUN), creatinine, triglycerides, sodium, calcium, potassium, phosphorus, chloride and carbon dioxide. Hematology parameters included red blood cell count, hemoglobin concentration, hematocrit, mean corpuscular volume (MCV), mean corpuscular hemoglobin concentration (MCHC), mean corpuscular hemoglobin (MCH), red cell distribution width, reticulocyte count, platelet count, mean platelet volume (MPV) and white blood cell count. Coagulation parameters included prothrombin time (PT) and activated partial thromboplastin time. Urinalysis parameters included color/character, specific gravity, pH, protein, glucose, ketones, bilirubin, occult blood and microscopics.

[4] = 14-day oral toxicity study in cynomolgus monkeys; assay type: in vivo, cynomolgus monkey; conditions: cynomolgus monkey, in vivo, oral, cynomolgus monkeys, nasal gavage once daily 14 days
Method: as §1, §2, §3, §4, §5

## N#Cc1ccc(N2CCC[C@@H]2[C@@H](O)C(F)(F)F)cc1C(F)(F)F [Compound 102, R,R-4-(2-(1-Hydroxyl-2,2,2-trifluoroethyl)-pyrrolidinyl)-2-trifluoromethyl-benzonitrile]
[1]; 0.01 mg/kg, Day 14, 0.01 mg/kg, 0 hr conc. substituted for 24 hr, read-out: AUC24
  AUC: 15 ng·h/mL
[1]; 0.01 mg/kg, Day 14, 0.01 mg/kg, read-out: AUC6
  AUC: 4 ng·h/mL
[1]; 0.03 mg/kg, Day 14, 0.03 mg/kg, 0 hr conc. substituted for 24 hr, read-out: AUC24
  AUC: 5 ng·h/mL
[1]; 0.03 mg/kg, Day 14, 0.03 mg/kg, read-out: AUC6
  AUC: 2 ng·h/mL
[1]; 0.3 mg/kg, Day 14, 0.3 mg/kg, 0 hr conc. substituted for 24 hr, read-out: AUC24
  AUC: 42 ng·h/mL
[1]; 0.3 mg/kg, Day 14, 0.3 mg/kg, read-out: AUC6
  AUC: 18 ng·h/mL
[1]; 1 mg/kg, Day 14, 1 mg/kg, 0 hr conc. substituted for 24 hr, read-out: AUC24
  AUC: 123 ng·h/mL
[1]; 1 mg/kg, Day 14, 1 mg/kg, read-out: AUC6
  AUC: 63 ng·h/mL
[1]; 3 mg/kg, Day 14, 3 mg/kg, 0 hr conc. substituted for 24 hr, read-out: AUC24
  AUC: 234 ng·h/mL
[1]; 3 mg/kg, Day 14, 3 mg/kg, read-out: AUC6
  AUC: 113 ng·h/mL
[1]; 10 mg/kg, Day 14, 10 mg/kg, 0 hr conc. substituted for 24 hr, read-out: AUC24
  AUC: 764 ng·h/mL
[1]; 10 mg/kg, Day 14, 10 mg/kg, read-out: AUC6
  AUC: 370 ng·h/mL
[1]; 30 mg/kg, Day 14, 30 mg/kg, 0 hr conc. substituted for 24 hr, read-out: AUC24
  AUC: 1880 ng·h/mL
[1]; 30 mg/kg, Day 14, 30 mg/kg, read-out: AUC6
  AUC: 645 ng·h/mL
[1]; 100 mg/kg, Day 14, 100 mg/kg, 0 hr conc. substituted for 24 hr, read-out: AUC24
  AUC: 4050 ng·h/mL
[1]; 100 mg/kg, Day 14, 100 mg/kg, read-out: AUC6
  AUC: 998 ng·h/mL
[1]; Day 14, 0.01 mg/kg
  Cmax: 2 ng/mL
  Tmax: 2.8 h
[1]; Day 14, 0.03 mg/kg
  Cmax: 1 ng/mL
  Tmax: 2 h
[1]; Day 14, 0.3 mg/kg
  Cmax: 12 ng/mL
  Tmax: 1.3 h
[1]; Day 14, 1 mg/kg
  Cmax: 18 ng/mL
  Tmax: 2.5 h
[1]; Day 14, 3 mg/kg
  Cmax: 36 ng/mL
  Tmax: 1.3 h
[1]; Day 14, 10 mg/kg
  Cmax: 111 ng/mL
  Tmax: 1.8 h
[1]; Day 14, 30 mg/kg
  Cmax: 205 ng/mL
  Tmax: 4.3 h
[1]; Day 14, 100 mg/kg
  Cmax: 321 ng/mL
  Tmax: 3.5 h
[2]; Day 1 and Day 13
  sex difference in toxicokinetic parameters: no noticeable sex difference
[2]; Day 13 relative to Day 1
  effect of repeat administration on systemic exposure: decreased on Day 13
[2]; both sexes
  systemic exposure versus dose: increased with increasing dose up to 450 mg/kg
[3]
  oral bioavailability: orally bioavailable
Cynomolgus monkeys; 5, 50 and 150 mg/kg males and females and 450 mg/kg female
  platelet counts lower on Day 14 relative to Day −3: 14% to 38%
Cynomolgus monkeys; Day 14, all dosed animals
  serum cholesterol concentration: decreased
Cynomolgus monkeys; Day 14, all dosed animals except the 5 mg/kg female
  prothrombin time longer than Day −3: 1.8 to 3.5 s
Cynomolgus monkeys; all dose levels
  microscopic findings (histopathology): no direct Compound 102-related microscopic findings
  ophthalmic examinations: no Compound 102-related findings
  urinalysis parameters: no Compound 102-related effects
Cynomolgus monkeys; all dosed animals relative to controls
  body weight: dose-independent increase in body weight
Cynomolgus monkeys; both sexes at 150 and 450 mg/kg
  gross necropsy findings: decreased thymus size and brown discoloration of the adrenals
Cynomolgus monkeys; cynomolgus monkeys, 14 days
  NOEL: not achieved
Cynomolgus monkeys; daily administration for 14 days, all dose levels
  mortality, clinical signs, food consumption, histologic effects: did not result in mortality, adverse clinical signs or changes in food consumption or histologic effects
Cynomolgus monkeys; female animal dosed with 450 mg/kg, after 14 days
  serum ALT and AST activity: elevated
Cynomolgus monkeys; males at 150 mg/kg and above, females at 50 mg/kg and above, considered secondary to stress
  thymus histology: Minimal to mild lymphoid cortical depletion of the thymus
[4]; female, females
  NOAEL at 14 days: 150 mg/kg
[4]; male, males
  NOAEL at 14 days: 450 mg/kg
